Assay results reported in ChEMBL document CHEMBL4622849, “Discovery of ethyl ketone-based HDACs 1, 2, and 3 selective inhibitors for HIV latency reactivation” (Bioorg Med Chem Lett, 2020).

Experiments:
[1] = test system: Human immunodeficiency virus; experiment: microbe, parasite or virus in culture; type: functional, organism-based; conditions: Human immunodeficiency virus 1, 2C4
Description: Reactivation of HIV latency infected in human 2C4 cells in presence of 0.1 % NHS by luciferase reporter gene assay

[2] = test system: Human immunodeficiency virus; experiment: microbe, parasite or virus in culture; type: functional, organism-based; conditions: Human immunodeficiency virus 1, 2C4; remark: listed apart in the source
Histone deacetylase 2 = Histone deacetylase 2 (Homo sapiens, UniProt Q92769)
Description: Inhibition of HDAC2 (unknown origin)

Histone deacetylase 8 = molecular target: T1, Histone deacetylase 8 (Homo sapiens, UniProt Q9BY41); type: ADME
T1 sequence (Q9BY41 whole entry): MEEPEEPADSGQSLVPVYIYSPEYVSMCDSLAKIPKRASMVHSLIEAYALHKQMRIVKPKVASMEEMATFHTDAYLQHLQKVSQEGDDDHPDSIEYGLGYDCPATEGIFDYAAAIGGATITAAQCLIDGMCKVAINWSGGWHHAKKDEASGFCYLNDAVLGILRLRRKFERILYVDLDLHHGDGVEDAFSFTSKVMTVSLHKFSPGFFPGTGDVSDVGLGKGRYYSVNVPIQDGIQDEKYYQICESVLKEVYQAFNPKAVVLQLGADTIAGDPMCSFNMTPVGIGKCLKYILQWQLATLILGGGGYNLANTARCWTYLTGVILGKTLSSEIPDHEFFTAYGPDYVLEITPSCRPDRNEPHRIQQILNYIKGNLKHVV
Description: Inhibition of HDAC8 (unknown origin)

[3] = molecular target: T2, Protein deacetylase HDAC6 (Homo sapiens, UniProt Q9UBN7); type: ADME
T2 sequence (Q9UBN7 whole entry): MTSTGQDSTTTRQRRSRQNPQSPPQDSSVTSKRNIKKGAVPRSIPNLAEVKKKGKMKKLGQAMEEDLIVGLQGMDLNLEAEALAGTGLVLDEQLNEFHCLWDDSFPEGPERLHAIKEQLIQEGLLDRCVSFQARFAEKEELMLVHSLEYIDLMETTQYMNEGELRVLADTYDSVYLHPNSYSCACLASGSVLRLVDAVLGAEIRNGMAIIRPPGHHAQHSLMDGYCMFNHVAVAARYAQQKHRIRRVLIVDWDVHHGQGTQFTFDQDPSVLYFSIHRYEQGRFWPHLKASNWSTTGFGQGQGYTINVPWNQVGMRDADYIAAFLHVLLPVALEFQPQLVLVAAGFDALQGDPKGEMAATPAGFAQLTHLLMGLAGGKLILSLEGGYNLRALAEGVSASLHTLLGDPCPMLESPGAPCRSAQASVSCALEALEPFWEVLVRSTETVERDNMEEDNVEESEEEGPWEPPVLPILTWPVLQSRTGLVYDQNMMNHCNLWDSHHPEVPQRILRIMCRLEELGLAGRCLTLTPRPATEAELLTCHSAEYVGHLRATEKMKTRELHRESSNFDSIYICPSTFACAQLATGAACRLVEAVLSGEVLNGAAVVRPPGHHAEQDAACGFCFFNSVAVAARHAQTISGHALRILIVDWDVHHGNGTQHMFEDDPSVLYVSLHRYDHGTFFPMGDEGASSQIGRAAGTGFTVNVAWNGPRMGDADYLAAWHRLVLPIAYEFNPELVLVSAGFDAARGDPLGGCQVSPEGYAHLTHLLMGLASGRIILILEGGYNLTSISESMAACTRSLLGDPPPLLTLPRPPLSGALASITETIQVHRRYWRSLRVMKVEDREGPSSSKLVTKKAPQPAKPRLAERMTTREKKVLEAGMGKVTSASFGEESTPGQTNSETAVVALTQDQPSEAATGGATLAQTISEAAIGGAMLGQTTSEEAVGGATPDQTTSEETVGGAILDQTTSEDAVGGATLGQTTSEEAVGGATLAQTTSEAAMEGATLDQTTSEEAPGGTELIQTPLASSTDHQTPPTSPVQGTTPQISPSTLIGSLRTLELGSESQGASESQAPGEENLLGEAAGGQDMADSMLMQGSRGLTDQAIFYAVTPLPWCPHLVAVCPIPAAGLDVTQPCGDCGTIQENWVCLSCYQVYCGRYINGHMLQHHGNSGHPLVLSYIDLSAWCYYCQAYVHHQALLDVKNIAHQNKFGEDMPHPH
Description: Inhibition of HDAC6 (unknown origin)

Histone deacetylase 1 = Histone deacetylase 1 (Homo sapiens, UniProt Q13547)
Description: Inhibition of HDAC1 (unknown origin)

[4] = Oral bioavailability in Wistar Han rat at 10 mg/kg; type: ADME, organism-based; conditions: in vivo
[5] = Half life in Wistar Han rat at 2 mg/kg, iv or 10 mg/kg, po; type: ADME, organism-based; conditions: in vivo
[6] = Cmax in Wistar Han rat at 10 mg/kg, po; type: ADME, organism-based; design: dose 10 mg/kg, route oral; conditions: in vivo
[7] = Clearance in Wistar Han rat at 2 mg/kg, iv or 10 mg/kg, po; type: ADME, organism-based; conditions: in vivo
[8] = AUC in Wistar Han rat at 10 mg/kg, po; type: ADME, organism-based; conditions: in vivo

Chain of Histone deacetylase 1 (Q13547 whole entry): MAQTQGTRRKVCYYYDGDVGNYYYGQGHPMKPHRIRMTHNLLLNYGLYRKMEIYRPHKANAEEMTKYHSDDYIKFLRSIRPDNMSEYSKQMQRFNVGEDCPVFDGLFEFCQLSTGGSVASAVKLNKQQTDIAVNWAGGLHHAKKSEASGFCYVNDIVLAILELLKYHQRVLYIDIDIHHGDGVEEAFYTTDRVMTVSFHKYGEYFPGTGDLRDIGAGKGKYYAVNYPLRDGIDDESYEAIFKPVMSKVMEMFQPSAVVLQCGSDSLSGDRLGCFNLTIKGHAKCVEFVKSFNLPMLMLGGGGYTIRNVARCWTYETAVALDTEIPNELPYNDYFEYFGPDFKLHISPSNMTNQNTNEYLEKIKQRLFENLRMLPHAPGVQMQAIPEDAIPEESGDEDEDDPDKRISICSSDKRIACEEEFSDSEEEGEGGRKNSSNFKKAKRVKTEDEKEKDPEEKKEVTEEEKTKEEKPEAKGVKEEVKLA
Chain of Histone deacetylase 2 (Q92769 whole entry): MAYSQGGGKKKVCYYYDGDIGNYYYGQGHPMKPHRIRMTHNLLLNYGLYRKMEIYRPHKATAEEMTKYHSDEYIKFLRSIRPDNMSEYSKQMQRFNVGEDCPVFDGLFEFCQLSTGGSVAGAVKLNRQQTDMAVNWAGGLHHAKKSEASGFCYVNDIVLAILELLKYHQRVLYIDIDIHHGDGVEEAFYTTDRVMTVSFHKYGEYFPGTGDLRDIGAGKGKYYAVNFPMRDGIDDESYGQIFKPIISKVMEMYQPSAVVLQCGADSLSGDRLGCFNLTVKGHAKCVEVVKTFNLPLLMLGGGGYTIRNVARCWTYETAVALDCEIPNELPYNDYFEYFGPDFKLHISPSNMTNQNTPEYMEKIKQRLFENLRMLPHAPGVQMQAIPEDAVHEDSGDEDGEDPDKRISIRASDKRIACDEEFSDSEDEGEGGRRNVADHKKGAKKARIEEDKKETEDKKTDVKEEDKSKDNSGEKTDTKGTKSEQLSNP

SMILES | EC50 [1] | EC50 [2] | further results
CCC(=O)CCCCC[C@H](NC(=O)C1CN(C)C1)c1ncc(-c2cc3ccccc3nc2OC)[nH]1 | 110 nM | 477 nM | –
CCC(=O)CCCCC[C@H](NC(=O)[C@H]1CC12CCN(CC(F)(F)F)CC2)c1ncc(-c2cc3ccccc3nc2OC)[nH]1 | 112 nM | 719 nM | –
CCC(=O)CCCCC[C@H](NC(=O)C1=NOC2(CCN(C)CC2)C1)c1ncc(-c2cc3ccccc3nc2OC)[nH]1 | 126 nM | 941 nM | IC50 (Histone deacetylase 2): 5.2 nM
CCC(=O)CCCCC[C@H](NC(=O)[C@H]1CC12CN(C)C2)c1ncc(-c2cc3ccccc3nc2OC)[nH]1 | 155 nM | 633 nM | IC50 (Histone deacetylase 8): 2020 nM; IC50 [3]: 299 nM
CCC(=O)CCCCC[C@H](NC(=O)C1CCC2(CC1)CN(C)C2)c1ncc(-c2cc3ccccc3nc2OC)[nH]1 | 85 nM | 687 nM | –
CCC(=O)CCCCC[C@H](NC(=O)[C@H]1CCC12CCN(CC)CC2)c1ncc(-c2cc3ccccc3nc2OC)[nH]1 | 43 nM | 110 nM | –
CCC(=O)CCCCC[C@H](NC(=O)CC1CC2(C1)CN(C)C2)c1ncc(-c2cc3ccccc3nc2OC)[nH]1 | 130 nM | 810 nM | IC50 (Histone deacetylase 1): 1 nM
CCC(=O)CCCCC[C@H](NC(=O)[C@H]1CC12CCN(Cc1cccnc1)CC2)c1ncc(-c2cc3ccccc3nc2OC)[nH]1 | 62 nM | 277 nM | –
CCC(=O)CCCCC[C@H](NC(=O)C1CC2(C1)CN(C)C2)c1ncc(-c2cc3ccccc3nc2OC)[nH]1 | 130 nM | 840 nM | –
CCC(=O)CCCCC[C@H](NC(=O)[C@H]1CC12CCC(N(C)C)CC2)c1ncc(-c2cc3ccccc3nc2OC)[nH]1 (some centres not stated) | 36 nM | 60 nM | IC50 (Histone deacetylase 8): 75 nM; IC50 [3]: 363 nM
CCC(=O)CCCCC[C@H](NC(=O)[C@H]1CC12CCN(CCC(F)(F)F)CC2)c1ncc(-c2cc3ccccc3nc2OC)[nH]1 | 78 nM | 343 nM | –
CCC(=O)CCCCC[C@H](NC(=O)[C@H]1CC12CCN(Cc1ccccc1)CC2)c1ncc(-c2cc3ccccc3nc2OC)[nH]1 | 74 nM | 175 nM | –
CCC(=O)CCCCC[C@H](NC(=O)[C@@H]1CC12CCOCC2)c1ncc(-c2cc3ccccc3nc2OC)[nH]1 | 647 nM | 5040 nM | –
CCC(=O)CCCCC[C@H](NC(=O)[C@@H]1CC12CCC(N(C)C)CC2)c1ncc(-c2cc3ccccc3nc2OC)[nH]1 (some centres not stated) | 441 nM | 1140 nM | IC50 (Histone deacetylase 8): 5580 nM; IC50 [3]: 759 nM
CCC(=O)CCCCC[C@H](NC(=O)[C@@H]1CCC12CCN(CC)CC2)c1ncc(-c2cc3ccccc3nc2OC)[nH]1 | 161 nM | 720 nM | IC50 (Histone deacetylase 8): 2330 nM; IC50 [3]: 518 nM
CCC(=O)CCCCC[C@H](NC(=O)[C@H]1CC12CCN(Cc1ccc(OC)cc1)CC2)c1ncc(-c2cc3ccccc3nc2OC)[nH]1 | 113 nM | 180 nM | –
CCC(=O)CCCCC[C@H](NC(=O)[C@H]1CC12CCN(CC)CC2)c1ncc(-c2cc3ccccc3nc2OC)o1 | 111 nM | 151 nM | bioavailability [4]: 68.9%; half-life [5]: 8.6 h; Cmax [6]: 1430 nM; clearance [7]: 15 mL/min/kg; AUC [8]: 14 µM·h
CCC(=O)CCCCC[C@H](NC(=O)[C@H]1CC12CCN(CC1CC1)CC2)c1ncc(-c2cc3ccccc3nc2OC)[nH]1 | 15 nM | 30 nM | –
CCC(=O)CCCCC[C@H](NC(=O)[C@H]1CC12CCOCC2)c1ncc(-c2cc3ccccc3nc2OC)[nH]1 | 234 nM | 1790 nM | –
CCC(=O)CCCCC[C@H](NC(=O)[C@H]1CC12CCN(C(C)C)CC2)c1ncc(-c2cc3ccccc3nc2OC)o1 | 161 nM | 309 nM | IC50 (Histone deacetylase 1): 3.5 nM

More lines, main results first:

EC50 [1] | EC50 [2] | SMILES | further results
81 nM | 324 nM | CCC(=O)CCCCC[C@H](NC(=O)[C@H]1CC12CCCN(C)C2)c1ncc(-c2cc3ccccc3nc2OC)[nH]1 (some centres not stated) | –
73 nM | 321 nM | CCC(=O)CCCCC[C@H](NC(=O)[C@H]1C[C@@]12CCN(C)C2)c1ncc(-c2cc3ccccc3nc2OC)[nH]1 | –
1230 nM | 1880 nM | CCC(=O)CCCCC[C@H](NC(=O)[C@H]1CC12CCN(CC)CC2)c1nnc(-c2cc3ccccc3nc2OC)[nH]1 | IC50 (Histone deacetylase 8): 2990 nM; IC50 [3]: 95 nM
1560 nM | 9850 nM | CCC(=O)CCCCC[C@H](NC(=O)[C@H]1CC12CCN(C(C)=O)CC2)c1ncc(-c2cc3ccccc3nc2OC)[nH]1 | IC50 (Histone deacetylase 8): 2270 nM; IC50 [3]: 1170 nM
257 nM | 1010 nM | CCC(=O)CCCCC[C@H](NC(=O)[C@@H]1CC12CCCN(C)C2)c1ncc(-c2cc3ccccc3nc2OC)[nH]1 (some centres not stated) | –
74 nM | 287 nM | CCC(=O)CCCCC[C@H](NC(=O)[C@@H]1CC12CN(C)C2)c1ncc(-c2cc3ccccc3nc2OC)[nH]1 | –
339 nM | 1370 nM | CCC(=O)CCCCC[C@H](NC(=O)[C@@H]1CC12CCN(C)CC2)c1ncc(-c2cc3ccccc3nc2OC)[nH]1 | –
154 nM | 895 nM | CCCN1CCC2(CC1)C[C@@H]2C(=O)N[C@@H](CCCCCC(=O)CC)c1ncc(-c2cc3ccccc3nc2OC)[nH]1 | –
309 nM | 1150 nM | CCC(=O)CCCCC[C@H](NC(=O)[C@@H]1C[C@@]12CCN(C)C2)c1ncc(-c2cc3ccccc3nc2OC)[nH]1 | –
1620 nM | 2580 nM | CCC(=O)CCCCC[C@H](NC(=O)[C@H]1CC12CCN(C)CC2)c1nnc(-c2cc3ccccc3nc2OC)[nH]1 | IC50 (Histone deacetylase 8): 1930 nM; IC50 [3]: 92 nM
32 nM | 57 nM | CCC(=O)CCCCC[C@H](NC(=O)[C@H]1CC12CCN(C(C)C)CC2)c1ncc(-c2cc3ccccc3nc2OC)[nH]1 | –
72 nM | 232 nM | CCC(=O)CCCCC[C@H](NC(=O)[C@H]1C[C@]12CCN(C)C2)c1ncc(-c2cc3ccccc3nc2OC)[nH]1 | –
689 nM | 691 nM | CCC(=O)CCCCC[C@H](NC(=O)[C@H]1CC12CCN(C)CC2)c1nnc(-c2cc3ccccc3nc2OC)o1 | IC50 (Histone deacetylase 8): 45000 nM
261 nM | 1140 nM | CCC(=O)CCCCC[C@H](NC(=O)[C@@H]1C[C@]12CCN(C)C2)c1ncc(-c2cc3ccccc3nc2OC)[nH]1 | IC50 [3]: 149 nM
